Measured values: patent EP1222921B1, “Pharmaceutical compositions of tizoxanide and/or nitazoxanide” (Romark Laboratories, L.C., priority 1997, dated 1998)
≈ marks a conversion by molar mass, not a printed value. Where two headings read alike, the source gives them in different places.

Tests used:
[1] = system: M. intracellular ATCC 13950; assay: MIC by standard agar dilution; assay type: cell-based, Mycobacterium intracellular; details: Mycobacterium, ATCC13950, 504 h, Middlebrook 7H11 agar, 3 weeks
[2] = system: RH strain of Toxoplasma gondii; assay: Toxoplasma gondii growth in MRC5 fibroblast cultures, ELISA; assay type: cell-based
C. parvum oocysts [3] = assay: Intact C. parvum oocyst assay (Example II), immunofluorescence; assay type: cell-based, Cryptosporidium parvum
Procedure: Nitazoxanide was dissolved in sterile dimethylsulfoxide (DMSO) and tested against intact C. parvum oocysts infected cell monolayers at concentrations of 100 µg/ml, 10 µg/ml/l µg/ml and 0.1 µg/ml. A second trail was performed which tested nitazoxanide at the additional concentrations of 20, 2, 0.2 and 0.02 µg/ml. These concentrations were achieved by serial dilutions with complete DMEM medium to yield a final DMSO concentration of 0.5%. The medium control also contacted 0.5% DMSO.
The experiment used a cell culture of MDBKF5D2 Cells grown in 7 mm chambers, and as Cryptosporidium parvum: GCH1 oocysts, 5 X 10^4 per well, and was conducted to compare paromomycin (positive control) against nitazoxanide (experimental drug). Materials included Immune Anti-Cryptosporidium parvum Sporozoite Rabbit Serum (0.1%) and Fluorescein-Conjugated Goat Anti-Rabbit Antibody (1%).
5 x 104 C. parvum oocysts per well were incubated in nitazoxanide (100, 20, 10, 2, 1, 0.2, 0.1 and 0.02 µg/ml) at 37°C (8% CO2) on confluent MDBKF5D2 cell monolayers. The level of infection in each well was determined and analyzed by an immunofluorescence assay at 24 to 48 hours. Percent Inhibition was calculated by subtracting the mean parasite count/10 field in the drug test wells from the mean parasite count/10 fields in the medium control (no drug), dividing by the medium control count, and then multiplying by 100. (Medium control count - Drug test count)/(Medium control count)x 100 [formula]

MDBKF5D2 cell monolayers = assay type: cell-based; details: cattle
Procedure: The drug was incubated on the monolayers at 37°C and 8% CO2. At 24 hours (trial 1) and 48 hours (trial 2), MTS (Owen's solution) the PMS were added to each well at concentrations of 333 µg/ml and 25 µM respectively. The plate was returned to the incubator in the dark to develop for two hours. At two hours, 100 µl of each supernatant was transferred to a new microtiter plate and read in the ELISA reader at 490nm. Results were recorded and analyzed. Percent toxicity was calculated by subtracting the mean optical density (OD) of the drug supernatants from the mean optical density (OD) of the medium control supernatants (no drug), dividing by the OD of the medium control and multiplying by 100. (OD medium - OD drug)/(OD medium)x 100 [formula]

C. parvum oocysts [4] = assay: Intact C. parvum oocyst assay (Example III), immunofluorescence; assay type: cell-based, Cryptosporidium parvum; details: for Parasite - Mean parasite count/field (12 fields analyzed) / %Inhib - Percent inhibitation of parasite infection: 48 hr.; for %Inhib - Percent inhibitation of parasite infection: listed as NTZ
Procedure: Each concentration of nitazoxanide and the media controls contained 0.025% DMSO as a constant. The experiment used a cell culture of MDBKF5D2 Cells grown in 7 mm chambers, and as Cryptosporidium parvum: GCH1 oocysts, 5 X 10^4 per well, and was conducted to compare paromomycin (positive control) against nitazoxanide (experimental drug). […] 5 x 104 C. parvum oocysts per well are incubated in the pre-mentioned concentrations of nitazoxanide at 37°C (8% CO2) on confluent MDBKF5D2 cell monolayers. The level of infection in each well was determined and computer analyzed by an immunofluorescence assay at 48 hours. […] (Medium control count - Drug test count)/(Medium control count)x 100 [formula] Conc. - µg/ml; Parasite - Mean parasite count/field (12 fields analyzed); %Inhib - Percent inhibitation of parasite infection; % Tox- Percent toxicity to cells by the drug.

Compound: CC(=O)Oc1ccccc1C(=O)Nc1ncc([N+](=O)[O-])s1 [Nitazoxanide, 2-(acetolyloxy)-N-(5-nitro 2-thiazoly) benzamide]
- MIC [1]: 2 µg/mL (≈ 6.51 µM)
- concentration with significant effect (inhibition) ([2]; 72 hours): ≥ 0.6 mg/L
- concentrations with complete inhibition of Toxoplasma growth ([2]; 72 hours): ≥ 2.5 mg/L
- IC50 ([2]; Toxoplasma gondii, MRC5, 72 hours, estimated from regression analysis, read-out: 50% inhibitory concentration): 1.2 µg/mL (≈ 3.91 µM)
- concentrations at which a marked inhibition of Toxoplasma growth could be observed ([2]; alteration of the parasitophorous vacuole, no marked alteration of the parasite itself): approximately 1.2 mg/L
- microscopic examination of the monolayer ([2]; concentration of 1.25 mg/L): induced cytopathic effect on the parasitized cells, with enlargement of the parasitophorous vacuole and reduction of the number of the intra-celular parasites
- inhibition at 0.1 µg/mL (C. parvum oocysts [3]; Cryptosporidium parvum, Trial 1: 24 hrs, 0.1µg/ml, read-out: Percent Inhibition): 51.8%
- inhibition at 1 µg/mL (C. parvum oocysts [3]; Cryptosporidium parvum, Trial 1: 24 hrs, 1µg/ml, read-out: Percent Inhibition): 77.2%
- inhibition at 10 µg/mL (C. parvum oocysts [3]; Cryptosporidium parvum, Trial 1: 24 hrs, 10µg/ml, read-out: Percent Inhibition): 94.4%
- inhibition at 0.02 µg/mL (C. parvum oocysts [3]; Cryptosporidium parvum, Trial 2: 48 hrs, 0.02µg/ml, read-out: Percent Inhibition): 53.3%
- inhibition at 0.2 µg/mL (C. parvum oocysts [3]; Cryptosporidium parvum, Trial 2: 48 hrs, 0.2µg/ml, read-out: Percent Inhibition): 54.3%
- inhibition at 2 µg/mL (C. parvum oocysts [3]; Cryptosporidium parvum, Trial 2: 48 hrs, 2µg/ml, read-out: Percent Inhibition): 94.9%
- inhibition at 20 µg/mL (C. parvum oocysts [3]; Cryptosporidium parvum, Trial 2: 48 hrs, 20µg/ml, read-out: Percent Inhibition): 96.9%
- Mean (+ SD) Parasite Count/10 Fields (C. parvum oocysts [3]; Trial 1: 24 hrs, 0.1µg/ml): 474.5(±29.5)
- Mean (+ SD) Parasite Count/10 Fields (C. parvum oocysts [3]; Trial 1: 24 hrs, 1µg/ml): 224.5(±28.5)
- Mean (+ SD) Parasite Count/10 Fields (C. parvum oocysts [3]; Trial 1: 24 hrs, 10µg/ml): 55.5(±13.5)
- Mean (+ SD) Parasite Count/10 Fields (C. parvum oocysts [3]; Trial 2: 48 hrs, 0.02µg/ml): 1041(+191.46)
- Mean (+ SD) Parasite Count/10 Fields (C. parvum oocysts [3]; Trial 2: 48 hrs, 0.2µg/ml): 1020(+158.48)
- Mean (+ SD) Parasite Count/10 Fields (C. parvum oocysts [3]; Trial 2: 48 hrs, 2µg/ml): 113.75(+21.36)
- Mean (+ SD) Parasite Count/10 Fields (C. parvum oocysts [3]; Trial 2: 48 hrs, 20µg/ml): 68.75(+13.77)
- Percent Toxicity (MDBKF5D2 cell monolayers; 24 h, 0.1 µg/ml): 19.3%
- Percent Toxicity (MDBKF5D2 cell monolayers; 24 h, 1 µg/ml): 8.3%
- Percent Toxicity (MDBKF5D2 cell monolayers; 24 h, 10 µg/ml): 65.1%
- Percent Toxicity (MDBKF5D2 cell monolayers; 24 h, 100 µg/ml): 88.1%
- Percent Toxicity (MDBKF5D2 cell monolayers; 48 h, 0.02 µg/ml): 21.23%
- Percent Toxicity (MDBKF5D2 cell monolayers; 48 h, 0.2 µg/ml): 16.56%
- Percent Toxicity (MDBKF5D2 cell monolayers; 48 h, 2 µg/ml): 24.93%
- Percent Toxicity (MDBKF5D2 cell monolayers; 48 h, 20 µg/ml): 92.87%
- Parasite - Mean parasite count/field (12 fields analyzed) (C. parvum oocysts [4]; Conc 0.01 µg/ml, 0.025% DMSO): 714.33
- Parasite - Mean parasite count/field (12 fields analyzed) (C. parvum oocysts [4]; Conc 0.1 µg/ml, 0.025% DMSO): 643.42
- Parasite - Mean parasite count/field (12 fields analyzed) (C. parvum oocysts [4]; Conc 1 µg/ml, 0.025% DMSO): 39.67
- %Inhib - Percent inhibitation of parasite infection (C. parvum oocysts [4]; Conc 1 µg/ml, 0.025% DMSO): 93.69%
- Parasite - Mean parasite count/field (12 fields analyzed) (C. parvum oocysts [4]; Conc 10 µg/ml, 0.025% DMSO): 11.75
- %Inhib - Percent inhibitation of parasite infection (C. parvum oocysts [4]; Conc 10 µg/ml, 0.025% DMSO): 98.13%
- inhibition at 0.01 µg/mL (C. parvum oocysts [4]; Cryptosporidium parvum, 48 h, Conc 0.01 µg/ml, 0.025% DMSO, read-out: %Inhib - Percent inhibitation of parasite infection): ≤ 0%
- inhibition at 0.1 µg/mL (C. parvum oocysts [4]; Cryptosporidium parvum, 48 h, Conc 0.1 µg/ml, 0.025% DMSO, read-out: %Inhib - Percent inhibitation of parasite infection): ≤ 0%
- inhibition at 1 µg/mL (C. parvum oocysts [4]; Cryptosporidium parvum, 48 h, Conc 1 µg/ml, 0.025% DMSO, read-out: %Inhib - Percent inhibitation of parasite infection): 94%
- inhibition at 10 µg/mL (C. parvum oocysts [4]; Cryptosporidium parvum, 48 h, Conc 10 µg/ml, 0.025% DMSO, read-out: %Inhib - Percent inhibitation of parasite infection): 98%
- lowest concentration giving more than 90% of inhibition (C. parvum oocysts [4]; in vitro against Cryptosporidium parvum): 1 µg/mL
